Reference: patent US20040127403A1, “Methods for treating and preventing Gram-positive bacteremias” (priority 2002, published 2004)
“And” between values parts separate entries of the source, which are not always exact repeats. Equal entries are not always repeated.

Experiments:
Assay in all cases: MIC, NCCLS broth microdilution
Assay type in all cases: cell-based
E. gallinarum UA604 = test system: E. gallinarum UA604
Protocol: (§1) The efficacy of ramoplanin was tested against recently isolated VRE that are resistant to linezolid and quinupristin/dalfopristin. The culture media containing ramoplanin was supplemented with 0.02% bovine serum albumin (BSA) to prevent ramoplanin binding to the plastic. MIC values were determined in both cation-adjusted Mueller-Hinton broth (CAMHB) and trypticase soy broth (TSB) by the National Committee for Clinical Laboratory Standards (NCCLS) broth microdilution method. Macromolecular biosynthesis experiments were done by following the incorporation of carbon-14-labeled N-acetylglucosamine, acetic acid, amino acids, uridine, and thymidine into peptidoglycan, fatty acid, protein, RNA and DNA, respectively.

E. faecium A6350 Line-R = test system: E. faecium A6350 Line-R
Protocol: as §1

E. faecium ATCC700221 = conditions: E. faecium ATCC700221
Protocol: as §1

S. aureus ATCC43300 MRSA = test system: S. aureus ATCC43300 MRSA
Protocol: as §1

E. faecium UA392 = conditions: E. faecium UA392
Protocol: as §1

S. epidermidis ATCC35983 = conditions: S. epidermidis ATCC35983
Protocol: as §1

S. aureus ATCC12600 MRSA = test system: S. aureus ATCC12600 MRSA
Protocol: as §1

E. faecalis ATCC29212 = conditions: E. faecalis ATCC29212
Protocol: as §1

S. epidermidis ATCC12228 = conditions: S. epidermidis ATCC12228
Protocol: as §1

E. faecalis ATCC51299 = conditions: E. faecalis ATCC51299
Protocol: as §1

[1] = test system: S. aureus ATCC700699 MRSA/VISA; conditions: S. aureus ATCC700699 MRSA/VISA
Protocol: as §1

E. faecium A-5960 Line-R = conditions: Table 6, 2nd
Protocol: as §1

E. faecalis A7789 Line-R = conditions: Table 6, 1st
Protocol: as §1

S. aureus ATCC27660 MSSA = test system: S. aureus ATCC27660 MSSA
Protocol: as §1

S. aureus ATCC19636 MSSA = test system: S. aureus ATCC19636 MSSA
Protocol: as §1

E. faecium UA210 = conditions: E. faecium UA210
Protocol: as §1

E. faecium A6345 Line-R = conditions: for MIC: E. faecium A6345 Line-R
Protocol: as §1

E. faecium 1836 = conditions: E. faecium 1836
Protocol: as §1

E. faecium A5959 Line-R = conditions: Table 6, 2nd
Protocol: as §1

E. faecium A4192 Syn-R = test system: E. faecium A4192 Syn-R
Protocol: as §1

S. aureus ATCC35556 MRSA = test system: S. aureus ATCC35556 MRSA
Protocol: as §1

S. epidermidis ATCC18972 = conditions: S. epidermidis ATCC18972
S. epidermidis ATCC35984 = conditions: S. epidermidis ATCC35984

## Ramoplanin
E. gallinarum UA604; CAMHB
  MIC: 0.125, 0.125 μg/ml
E. gallinarum UA604; TSB
  MIC: 0.25, 0.25 μg/ml
E. gallinarum UA604; Table 6, 1st
  MIC: 0.06 µg/mL
E. gallinarum UA604; Table 6, 2nd
  MIC: 0.125 µg/mL
E. faecium A6350 Line-R; CAMHB
  MIC: 0.25, 0.25 μg/ml
E. faecium A6350 Line-R; TSB
  MIC: 0.5, 0.5 μg/ml
E. faecium A6350 Line-R; Table 6, 1st
  MIC: 0.25 µg/mL
E. faecium A6350 Line-R; Table 6, 2nd
  MIC: 0.25 µg/mL
E. faecium ATCC700221; CAMHB
  MIC: 0.25, 0.25 μg/ml
E. faecium ATCC700221; TSB
  MIC: 0.5, 0.5 μg/ml
E. faecium ATCC700221; Table 6, 1st
  MIC: 0.25 µg/mL
E. faecium ATCC700221; Table 6, 2nd
  MIC: 0.25 µg/mL
S. aureus ATCC43300 MRSA; S. aureus ATCC43300 MRSA/VISA, Table 6, 1st
  MIC: 2 µg/mL
S. aureus ATCC43300 MRSA; S. aureus ATCC43300 MRSA/VISA, Table 6, 2nd
  MIC: 0.25 µg/mL
S. aureus ATCC43300 MRSA; S. aureus ATCC43300 MRSA, CAMHB
  MIC: 1, 1 μg/ml
S. aureus ATCC43300 MRSA; S. aureus ATCC43300 MRSA, TSB
  MIC: 0.5, 0.5 μg/ml
E. faecium UA392; CAMHB
  MIC: 0.25, 0.25 μg/ml
E. faecium UA392; TSB
  MIC: 0.25, 0.25 μg/ml
E. faecium UA392; Table 6, 1st
  MIC: 0.125 µg/mL
E. faecium UA392; Table 6, 2nd
  MIC: 0.25 µg/mL
S. epidermidis ATCC35983; CAMHB
  MIC: 0.5, 0.5 μg/ml
S. epidermidis ATCC35983; TSB
  MIC: 2 µg/mL and 1 µg/mL
S. epidermidis ATCC35983; Table 6, 2nd
  MIC: 0.5 µg/mL
S. aureus ATCC12600 MRSA; CAMHB
  MIC: 0.5, 0.5 μg/ml
S. aureus ATCC12600 MRSA; TSB
  MIC: 0.5, 0.5 μg/ml
S. aureus ATCC12600 MRSA; Table 6, 1st
  MIC: 1 µg/mL
S. aureus ATCC12600 MRSA; Table 6, 2nd
  MIC: 0.5 µg/mL
E. faecalis ATCC29212; CAMHB
  MIC: 0.5, 0.5 μg/ml
E. faecalis ATCC29212; TSB
  MIC: 0.5, 0.5 μg/ml
E. faecalis ATCC29212; Table 6, 1st
  MIC: 0.25 µg/mL
E. faecalis ATCC29212; Table 6, 2nd
  MIC: 0.5 µg/mL and 0.25 µg/mL
S. epidermidis ATCC12228; CAMHB
  MIC: 0.5, 0.5 μg/ml
S. epidermidis ATCC12228; TSB
  MIC: 1, 1 μg/ml
S. epidermidis ATCC12228; Table 6, 1st
  MIC: 1 µg/mL
S. epidermidis ATCC12228; Table 6, 2nd
  MIC: 0.25 µg/mL
E. faecalis ATCC51299; CAMHB
  MIC: 0.5, 0.5 μg/ml
E. faecalis ATCC51299; TSB
  MIC: 0.5, 0.5 μg/ml
E. faecalis ATCC51299; Table 6, 1st
  MIC: 0.25 µg/mL
E. faecalis ATCC51299; Table 6, 2nd
  MIC: 0.5 µg/mL
[1]; CAMHB
  MIC: 0.5 µg/mL and 0.25 µg/mL
[1]; TSB
  MIC: 0.25, 0.25 μg/ml
[1]; Table 6, 1st
  MIC: 1 µg/mL
[1]; Table 6, 2nd
  MIC: 0.5 µg/mL
E. faecium A-5960 Line-R
  MIC: 0.25 µg/mL
E. faecalis A7789 Line-R
  MIC: 0.06 µg/mL
S. aureus ATCC27660 MSSA; CAMHB
  MIC: 0.5 µg/mL and 1 µg/mL
S. aureus ATCC27660 MSSA; TSB
  MIC: 0.25, 0.25 μg/ml
S. aureus ATCC27660 MSSA; Table 6, 1st
  MIC: 2 µg/mL
S. aureus ATCC27660 MSSA; Table 6, 2nd
  MIC: 1 µg/mL
S. aureus ATCC19636 MSSA; CAMHB
  MIC: 0.5, 0.5 μg/ml
S. aureus ATCC19636 MSSA; TSB
  MIC: 0.25, 0.25 μg/ml
S. aureus ATCC19636 MSSA; Table 6, 1st
  MIC: 1 µg/mL
S. aureus ATCC19636 MSSA; Table 6, 2nd
  MIC: 1 µg/mL
E. faecium UA210; CAMHB
  MIC: 0.125, 0.125 μg/ml
E. faecium UA210; TSB
  MIC: 0.125, 0.125 μg/ml
E. faecium UA210; Table 6, 1st
  MIC: 0.06 µg/mL
E. faecium UA210; Table 6, 2nd
  MIC: 0.125 µg/mL
E. faecium A6345 Line-R; E. faecium A6345 Line-R. as printed, second row of Table 3
  reference MIC for strains used for killing curve: 0.25 µg/mL
E. faecium A6345 Line-R; E. faecium A6345 Line-R., first row of Table 3
  reference MIC for strains used for killing curve: 0.25 µg/mL
E. faecium A6345 Line-R; CAMHB
  MIC: 0.125, 0.125 μg/ml
E. faecium A6345 Line-R; TSB
  MIC: 0.25, 0.25 μg/ml
E. faecium A6345 Line-R; Table 6, 1st
  MIC: 0.125 µg/mL
E. faecium A6345 Line-R; Table 6, 2nd
  MIC: 0.25 µg/mL
E. faecium 1836; CAMHB
  MIC: 0.5, 0.5 μg/ml
E. faecium 1836; TSB
  MIC: 0.5, 0.5 μg/ml
E. faecium 1836; Table 6, 1st
  MIC: 0.25 µg/mL
E. faecium 1836; Table 6, 2nd
  MIC: 0.5 µg/mL
E. faecium A5959 Line-R
  MIC: 0.25 µg/mL
E. faecium A4192 Syn-R; CAMHB
  MIC: 0.25, 0.25 μg/ml
E. faecium A4192 Syn-R; TSB
  MIC: 0.5, 0.5 μg/ml
E. faecium A4192 Syn-R; Table 6, 1st
  MIC: 0.25 µg/mL
E. faecium A4192 Syn-R; Table 6, 2nd
  MIC: 0.5 µg/mL
S. aureus ATCC35556 MRSA; CAMHB
  MIC: 0.5, 0.5 μg/ml
S. aureus ATCC35556 MRSA; TSB
  MIC: 0.125, 0.125 μg/ml
S. aureus ATCC35556 MRSA; Table 6, 1st
  MIC: 1 µg/mL
S. aureus ATCC35556 MRSA; Table 6, 2nd
  MIC: 0.5 µg/mL
S. epidermidis ATCC18972; CAMHB
  MIC: 0.5, 0.5 μg/ml
S. epidermidis ATCC18972; TSB
  MIC: 1, 1 μg/ml
S. epidermidis ATCC18972; Table 6, 1st
  MIC: 1 µg/mL
S. epidermidis ATCC18972; Table 6, 2nd
  MIC: 0.25 µg/mL
S. epidermidis ATCC35984; CAMHB
  MIC: 0.5, 0.5 μg/ml
S. epidermidis ATCC35984; TSB
  MIC: 0.5, 0.5 μg/ml
S. epidermidis ATCC35984; Table 6, 1st
  MIC: 1 µg/mL
S. epidermidis ATCC35984; Table 6, 2nd
  MIC: 0.25 µg/mL
